# In ChEMBL document CHEMBL4831544, “Discovery of IHMT-EZH2-115 as a Potent and Selective Enhancer of Zeste Homolog 2 (EZH2) Inhibitor for the Treatment of B-Cell Lymphomas” (J Med Chem, 2021):
# How the values were obtained:
# [1] = Antiproliferative activity against human WSUDLCL2 cells assessed as inhibition of cell growth measured after 6 days by CellTiter-Glo luminescent assay; format: functional; details: WSUDLCL2, 144 h, time 6 day
# [2] = Apparent volume of distribution in rat at 10 mg/kg, po; format: ADME, organism-based; details: in vivo
# [3] = Clearance in rat at 1 mg/kg, iv; format: ADME, organism-based; details: in vivo
# [4] = target: Histone-lysine N-methyltransferase EHMT1 (Homo sapiens) (UniProt Q9H9B1); test: Inhibition of GLP (unknown origin) at 10 uM using SAM as substrate measured up to 960 mins by AlphaScreen microplate reader assay relative to control; details: time min <=960
# [5] = target: Histone-lysine N-methyltransferase 2A (Homo sapiens) (UniProt Q03164); test: Inhibition of MLL1 (unknown origin) at 10 uM using SAM as substrate measured up to 960 mins by AlphaScreen microplate reader assay relative to control; details: time min <=960
# Chain of Histone-lysine N-methyltransferase 2A (Homo sapiens) (Q03164 1-2718 limits assumed): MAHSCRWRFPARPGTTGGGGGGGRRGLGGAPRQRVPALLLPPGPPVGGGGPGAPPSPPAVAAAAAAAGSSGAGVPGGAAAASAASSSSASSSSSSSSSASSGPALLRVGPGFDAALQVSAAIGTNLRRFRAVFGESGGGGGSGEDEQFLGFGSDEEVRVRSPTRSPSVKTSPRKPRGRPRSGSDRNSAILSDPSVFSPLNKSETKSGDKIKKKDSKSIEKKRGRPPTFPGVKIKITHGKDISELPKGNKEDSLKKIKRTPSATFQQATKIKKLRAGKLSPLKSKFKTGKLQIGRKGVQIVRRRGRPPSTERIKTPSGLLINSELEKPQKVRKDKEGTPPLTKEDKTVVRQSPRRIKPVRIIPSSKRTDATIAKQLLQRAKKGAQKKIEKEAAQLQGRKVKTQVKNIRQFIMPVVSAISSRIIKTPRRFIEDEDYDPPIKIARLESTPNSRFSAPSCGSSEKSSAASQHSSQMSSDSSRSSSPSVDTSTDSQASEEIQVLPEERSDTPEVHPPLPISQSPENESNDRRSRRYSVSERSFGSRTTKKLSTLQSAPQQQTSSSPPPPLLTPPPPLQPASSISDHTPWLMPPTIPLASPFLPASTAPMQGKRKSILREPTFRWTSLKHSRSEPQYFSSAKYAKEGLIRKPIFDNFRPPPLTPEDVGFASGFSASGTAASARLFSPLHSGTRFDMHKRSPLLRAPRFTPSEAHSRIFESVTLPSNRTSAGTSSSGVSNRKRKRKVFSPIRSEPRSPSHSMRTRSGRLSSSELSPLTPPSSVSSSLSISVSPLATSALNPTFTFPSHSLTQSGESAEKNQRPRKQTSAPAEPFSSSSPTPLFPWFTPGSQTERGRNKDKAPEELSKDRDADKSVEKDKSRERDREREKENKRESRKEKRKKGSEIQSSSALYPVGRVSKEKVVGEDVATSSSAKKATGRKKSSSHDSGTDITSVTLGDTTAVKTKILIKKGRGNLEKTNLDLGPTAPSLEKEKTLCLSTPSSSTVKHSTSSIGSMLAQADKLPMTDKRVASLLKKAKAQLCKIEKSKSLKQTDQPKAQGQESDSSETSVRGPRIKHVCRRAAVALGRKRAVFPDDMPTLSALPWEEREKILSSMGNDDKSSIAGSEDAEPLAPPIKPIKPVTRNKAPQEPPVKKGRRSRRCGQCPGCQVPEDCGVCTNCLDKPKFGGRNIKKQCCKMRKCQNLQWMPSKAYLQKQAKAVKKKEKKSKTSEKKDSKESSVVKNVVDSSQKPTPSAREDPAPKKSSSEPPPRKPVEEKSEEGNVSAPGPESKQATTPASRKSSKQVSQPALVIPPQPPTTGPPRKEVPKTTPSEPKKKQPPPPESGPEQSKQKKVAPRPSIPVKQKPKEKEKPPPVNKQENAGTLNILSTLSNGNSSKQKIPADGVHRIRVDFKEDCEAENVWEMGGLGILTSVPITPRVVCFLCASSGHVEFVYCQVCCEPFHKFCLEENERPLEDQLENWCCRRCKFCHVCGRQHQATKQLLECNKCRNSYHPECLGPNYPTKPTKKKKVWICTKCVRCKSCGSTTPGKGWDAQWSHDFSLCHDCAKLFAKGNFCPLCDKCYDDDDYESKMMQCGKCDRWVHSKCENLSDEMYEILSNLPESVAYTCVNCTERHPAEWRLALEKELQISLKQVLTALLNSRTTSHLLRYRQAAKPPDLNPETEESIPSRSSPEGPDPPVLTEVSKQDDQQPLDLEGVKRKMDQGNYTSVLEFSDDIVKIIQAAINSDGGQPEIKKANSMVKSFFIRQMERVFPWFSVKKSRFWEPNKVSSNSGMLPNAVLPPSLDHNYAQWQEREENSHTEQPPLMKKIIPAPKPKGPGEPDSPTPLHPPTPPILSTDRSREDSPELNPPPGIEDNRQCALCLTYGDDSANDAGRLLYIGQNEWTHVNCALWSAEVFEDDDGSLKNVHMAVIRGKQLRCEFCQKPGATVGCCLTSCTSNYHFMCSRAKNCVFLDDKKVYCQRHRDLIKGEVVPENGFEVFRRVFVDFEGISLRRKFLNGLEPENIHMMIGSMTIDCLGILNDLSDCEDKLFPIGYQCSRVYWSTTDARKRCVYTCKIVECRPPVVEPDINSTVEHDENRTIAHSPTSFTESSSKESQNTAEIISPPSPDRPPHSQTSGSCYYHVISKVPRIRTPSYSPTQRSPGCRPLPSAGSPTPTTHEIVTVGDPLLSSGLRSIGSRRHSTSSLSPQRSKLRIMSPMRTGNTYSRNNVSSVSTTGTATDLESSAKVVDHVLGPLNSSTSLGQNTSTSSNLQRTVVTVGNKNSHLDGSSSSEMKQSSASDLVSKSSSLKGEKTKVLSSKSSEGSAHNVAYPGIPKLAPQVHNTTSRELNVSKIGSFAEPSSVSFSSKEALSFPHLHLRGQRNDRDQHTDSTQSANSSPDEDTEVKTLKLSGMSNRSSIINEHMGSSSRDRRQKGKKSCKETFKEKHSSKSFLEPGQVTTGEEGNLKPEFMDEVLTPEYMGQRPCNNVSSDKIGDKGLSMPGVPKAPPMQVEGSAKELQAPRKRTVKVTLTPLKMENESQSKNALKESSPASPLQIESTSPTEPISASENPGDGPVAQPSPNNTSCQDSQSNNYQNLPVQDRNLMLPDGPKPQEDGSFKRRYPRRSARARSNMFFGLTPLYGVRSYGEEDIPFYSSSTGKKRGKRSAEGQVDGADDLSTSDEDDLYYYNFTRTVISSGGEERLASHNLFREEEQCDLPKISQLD
# Chain of Histone-lysine N-methyltransferase 2A (Homo sapiens) (Q03164 2719-3969 limits assumed): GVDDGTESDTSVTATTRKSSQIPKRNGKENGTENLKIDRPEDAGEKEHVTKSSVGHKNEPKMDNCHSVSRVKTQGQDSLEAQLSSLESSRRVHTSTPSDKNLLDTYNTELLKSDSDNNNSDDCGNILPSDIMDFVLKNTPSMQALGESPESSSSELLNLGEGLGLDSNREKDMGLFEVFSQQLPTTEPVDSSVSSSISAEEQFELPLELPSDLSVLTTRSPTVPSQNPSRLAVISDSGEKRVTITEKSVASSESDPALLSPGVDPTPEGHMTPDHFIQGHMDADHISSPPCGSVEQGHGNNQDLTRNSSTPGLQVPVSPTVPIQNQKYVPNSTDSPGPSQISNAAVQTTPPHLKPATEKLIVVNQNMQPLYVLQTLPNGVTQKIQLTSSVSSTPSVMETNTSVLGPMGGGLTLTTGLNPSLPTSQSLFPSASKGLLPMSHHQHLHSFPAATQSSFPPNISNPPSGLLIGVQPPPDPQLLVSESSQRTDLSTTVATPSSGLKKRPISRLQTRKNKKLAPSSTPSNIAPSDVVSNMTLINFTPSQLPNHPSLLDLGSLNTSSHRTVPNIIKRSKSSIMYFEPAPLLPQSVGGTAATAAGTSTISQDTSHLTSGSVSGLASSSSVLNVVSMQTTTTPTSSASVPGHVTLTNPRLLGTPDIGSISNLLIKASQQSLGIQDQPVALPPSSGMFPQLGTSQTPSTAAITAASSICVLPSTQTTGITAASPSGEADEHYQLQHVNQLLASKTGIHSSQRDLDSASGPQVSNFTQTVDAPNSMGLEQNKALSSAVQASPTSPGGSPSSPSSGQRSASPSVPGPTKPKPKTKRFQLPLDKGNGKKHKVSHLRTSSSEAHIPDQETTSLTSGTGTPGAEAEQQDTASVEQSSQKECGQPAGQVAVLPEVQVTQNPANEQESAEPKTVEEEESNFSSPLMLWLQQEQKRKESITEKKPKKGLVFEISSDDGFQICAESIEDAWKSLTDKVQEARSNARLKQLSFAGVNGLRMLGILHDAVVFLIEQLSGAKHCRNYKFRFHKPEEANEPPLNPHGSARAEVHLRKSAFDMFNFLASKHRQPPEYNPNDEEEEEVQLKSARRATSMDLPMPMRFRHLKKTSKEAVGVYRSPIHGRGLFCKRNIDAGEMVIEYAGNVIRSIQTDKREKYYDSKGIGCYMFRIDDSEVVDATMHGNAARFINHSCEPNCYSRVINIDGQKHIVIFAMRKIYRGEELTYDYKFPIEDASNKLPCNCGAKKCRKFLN
# [6] = target: Histone-lysine N-methyltransferase SETD7 (Homo sapiens) (UniProt Q8WTS6); test: Inhibition of SET7/9 (unknown origin) at 10 uM using SAM as substrate measured up to 960 mins by AlphaScreen microplate reader assay relative to control; details: time min <=960
# [7] = target: Histone-lysine N-methyltransferase SUV39H2 (Homo sapiens) (UniProt Q9H5I1); test: Inhibition of SUV39H2 (unknown origin) at 10 uM using SAM as substrate measured up to 960 mins by AlphaScreen microplate reader assay relative to control; details: time min <=960
# Chain of Histone-lysine N-methyltransferase SUV39H2 (Homo sapiens) (Q9H5I1 whole entry): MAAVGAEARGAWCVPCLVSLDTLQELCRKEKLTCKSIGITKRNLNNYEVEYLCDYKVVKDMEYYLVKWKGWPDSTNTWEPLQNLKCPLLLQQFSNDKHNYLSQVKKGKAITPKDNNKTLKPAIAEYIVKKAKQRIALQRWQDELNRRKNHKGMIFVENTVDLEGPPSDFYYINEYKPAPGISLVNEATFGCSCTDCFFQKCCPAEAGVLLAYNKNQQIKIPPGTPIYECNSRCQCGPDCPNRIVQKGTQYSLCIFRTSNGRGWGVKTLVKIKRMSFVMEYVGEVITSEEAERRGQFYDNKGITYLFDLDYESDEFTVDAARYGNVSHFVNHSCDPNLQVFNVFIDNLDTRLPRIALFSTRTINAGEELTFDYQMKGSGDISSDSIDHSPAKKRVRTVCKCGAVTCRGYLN
# [8] = target: Histone-arginine methyltransferase CARM1 (Homo sapiens) (UniProt Q86X55); test: Inhibition of PRMT4 (unknown origin) at 10 uM using SAM as substrate measured up to 960 mins by AlphaScreen microplate reader assay relative to control; details: time min <=960
# [9] = target: Protein arginine N-methyltransferase 5 (Homo sapiens) (UniProt O14744); test: Inhibition of PRMT5 (unknown origin) at 10 uM using SAM as substrate measured up to 960 mins by AlphaScreen microplate reader assay relative to control; details: time min <=960
# [10] = target: Protein arginine N-methyltransferase 8 (Homo sapiens) (UniProt Q9NR22); test: Inhibition of PRMT8 (unknown origin) at 10 uM using SAM as substrate measured up to 960 mins by AlphaScreen microplate reader assay relative to control; details: time min <=960
# [11] = target: F-box only protein 11 (Homo sapiens) (UniProt Q86XK2); test: Inhibition of PRMT9 (unknown origin) at 10 uM using SAM as substrate measured up to 960 mins by AlphaScreen microplate reader assay relative to control; details: time min <=960
# [12] = target: Histone-lysine N-methyltransferase, H3 lysine-36 specific (Homo sapiens) (UniProt Q96L73); test: Inhibition of NSD1 (unknown origin) at 10 uM using SAM as substrate measured up to 960 mins by AlphaScreen microplate reader assay relative to control; details: time min <=960
# [13] = target: Histone-lysine N-methyltransferase NSD2 (Homo sapiens) (UniProt O96028); test: Inhibition of NSD2 (unknown origin) at 10 uM using SAM as substrate measured up to 960 mins by AlphaScreen microplate reader assay relative to control; details: time min <=960
# [14] = target: Histone-lysine N-methyltransferase SMYD3 (Homo sapiens) (UniProt Q9H7B4); test: Inhibition of SMYD3 (unknown origin) at 10 uM using SAM as substrate measured up to 960 mins by AlphaScreen microplate reader assay relative to control; details: time min <=960
# [15] = system: Histone-lysine N-methyltransferase EZH2 (Homo sapiens), Q15910 [UNDEFINED MUTATION]; test: Inhibition of EZH2 A738T mutant (unknown origin) at 10 uM using SAM as substrate measured up to 960 mins by AlphaScreen microplate reader assay relative to control; details: time min <=960
# Chain of Histone-lysine N-methyltransferase EZH2 (Homo sapiens), Q15910 [UNDEFINED MUTATION] (Q15910 whole entry, looked up, stated change not applied): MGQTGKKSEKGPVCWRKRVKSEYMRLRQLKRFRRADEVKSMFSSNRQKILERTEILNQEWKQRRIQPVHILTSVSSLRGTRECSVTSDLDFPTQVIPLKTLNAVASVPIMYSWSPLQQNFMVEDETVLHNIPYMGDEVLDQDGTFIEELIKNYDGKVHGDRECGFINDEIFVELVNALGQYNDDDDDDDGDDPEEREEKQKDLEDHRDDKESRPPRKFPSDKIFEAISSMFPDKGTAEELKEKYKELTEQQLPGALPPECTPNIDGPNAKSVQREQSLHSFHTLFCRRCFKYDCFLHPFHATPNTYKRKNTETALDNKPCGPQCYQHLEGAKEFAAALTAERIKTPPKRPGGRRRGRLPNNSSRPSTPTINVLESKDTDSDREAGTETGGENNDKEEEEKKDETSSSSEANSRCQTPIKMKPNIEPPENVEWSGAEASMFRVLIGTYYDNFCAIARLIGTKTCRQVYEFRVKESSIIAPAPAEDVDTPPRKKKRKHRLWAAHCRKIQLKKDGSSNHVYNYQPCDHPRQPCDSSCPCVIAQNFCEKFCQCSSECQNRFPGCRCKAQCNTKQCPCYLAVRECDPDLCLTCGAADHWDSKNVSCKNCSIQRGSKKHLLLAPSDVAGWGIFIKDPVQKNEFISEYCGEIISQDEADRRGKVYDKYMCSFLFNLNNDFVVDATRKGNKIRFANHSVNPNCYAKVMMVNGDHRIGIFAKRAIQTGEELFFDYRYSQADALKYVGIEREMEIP
# [16] = system: Histone-lysine N-methyltransferase EZH2 (Homo sapiens), Q15910 [P132S]; test: Inhibition of EZH2 P132S mutant (unknown origin) at 10 uM using SAM as substrate measured up to 960 mins by AlphaScreen microplate reader assay relative to control; details: time min <=960
# [17] = system: Histone-lysine N-methyltransferase EZH2 (Homo sapiens), Q15910 [Y641C]; test: Inhibition of EZH2 Y641C mutant (unknown origin) at 10 uM using SAM as substrate measured up to 960 mins by AlphaScreen microplate reader assay relative to control; details: time min <=960
# [18] = system: Histone-lysine N-methyltransferase EZH2 (Homo sapiens), Q15910 [Y641H]; test: Inhibition of EZH2 Y641H mutant (unknown origin) at 10 uM using SAM as substrate measured up to 960 mins by AlphaScreen microplate reader assay relative to control; details: time min <=960
# [19] = system: Histone-lysine N-methyltransferase EZH2 (Homo sapiens), Q15910 [Y641N]; test: Inhibition of EZH2 Y641N mutant (unknown origin) at 10 uM using SAM as substrate measured up to 960 mins by AlphaScreen microplate reader assay relative to control; details: time min <=960
# [20] = system: Pfeiffer; test: Antiproliferative activity against human Pfeiffer cells harboring EZH2 A677G mutant assessed as inhibition of cell growth measured after 6 days by CellTiter-Glo luminescent assay; format: functional; details: 144 h, time 6 day
# [21] = system: KARPAS-422; test: Antiproliferative activity against human KARPAS-422 cells harboring EZH2 Y641N mutant assessed as inhibition of cell growth measured after 6 days by CellTiter-Glo luminescent assay; format: functional; details: KARPAS-422, 144 h, time 6 day
# [22] = system: SU-DHL-6; test: Antiproliferative activity against human SU-DHL-6 cells harboring EZH2 Y641N mutant assessed as inhibition of cell growth measured after 6 days by CellTiter-Glo luminescent assay; format: functional; details: SU-DHL-6, 144 h, time 6 day
# [23] = system: U2932; test: Antiproliferative activity against human U2932 cells expressing wild type EZH2 assessed as inhibition of cell growth measured after 6 days by CellTiter-Glo luminescent assay; format: functional; details: U2932, 144 h, time 6 day
# [24] = system: Pfeiffer; test: Antitumor activity against human Pfeiffer cells harboring EZH2 A677G mutant xenografted in NCG mouse assessed as tumor growth inhibition at 50 mg/kg, po BID via gavage measured after 28 days relative to control; format: functional; details: 672 h, time 28 day, read-out: TGI
# [25] = system: KARPAS-422; test: Antitumor activity against human KARPAS-422 cells harboring EZH2 Y641N mutant xenografted in NCG mouse assessed as tumor growth inhibition at 50 mg/kg, po BID via gavage measured after 28 days relative to control; format: functional; details: KARPAS-422, po, 672 h, time 28 day, read-out: TGI
# [26] = Half life in mouse at 10 mg/kg, po measured up to 24 hrs by LC-MS/MS analysis; format: ADME, organism-based; details: in vivo
# [27] = AUC (0 to infinity) in mouse at 10 mg/kg, po measured up to 24 hrs by LC-MS/MS analysis; format: ADME, organism-based; design: route oral, dose 10 mg/kg, time <=24; details: in vivo
# [28] = Apparent volume of distribution in mouse at 10 mg/kg, po measured up to 24 hrs by LC-MS/MS analysis; format: ADME, organism-based; details: in vivo
# [29] = Cmax in mouse at 1 mg/kg, iv measured up to 24 hrs by LC-MS/MS analysis; format: ADME, organism-based; design: route intravenous, dose 1 mg/kg, time <=24; details: in vivo
# [30] = system: KARPAS-422; test: Antitumor activity against human KARPAS-422 cells harboring EZH2 Y641N mutant xenografted in NCG mouse assessed as change in tumor weight at 200 mg/kg, po BID via gavage measured after 28 days (reference value: 2.14 g); format: functional; details: time 28 day
smiles,measurement,setting,value
CCN(C(=O)C1CC1)c1cc(-c2ccc(N3CCN(CC4CC4)CC3)nc2C)cc(C(=O)NCc2c(C)cc(C)[nH]c2=O)c1C,GI50,[1],200 nM
same,Vz,[2],36.559 L/kg
same,clearance,[3],85.5 mL/min/kg
same,inhibition,[4],0%
same,inhibition,[5],12%
same,inhibition,[6],3%
same,inhibition,[7],8%
same,inhibition,[8],0%
same,inhibition,[9],0%
same,inhibition,[10],0%
same,inhibition,[11],9%
same,inhibition,[12],12%
same,inhibition,[13],10%
same,inhibition,[14],16%
same,inhibition,[15],100%
same,inhibition,[16],100%
same,inhibition,[17],95%
same,inhibition,[18],81%
same,inhibition,[19],98%
same,GI50,[20],3 nM
same,GI50,[21],50 nM
same,GI50,[22],1100 nM
same,GI50,[23],> 10000 nM
same,inhibition in vivo at 50 mg/kg,[24],91.8%
same,inhibition in vivo at 50 mg/kg,[25],47.7%
same,t1/2,[26],1.3 h
same,AUC(0-inf),[27],1000 ng·h/mL
same,Vz,[28],18.638 L/kg
same,Cmax,[29],1240 ng/mL
same,Activity,[30],0.057 g
